Reference: patent publication US20220305019A1, “PARAXANTHINE-BASED COMPOSITIONS FOR PROMOTING WEIGHT LOSS” (Ingenious Ingredients, LP, priority 2021, published 2022)

What was measured:
Type in all cases: in vivo, human
[1] = Appetite visual analog scale (VAS) after oral ingestion, crossover, two participants; conditions: 200 mg CA; for Appetite Visual Analog Scale MEAN: mean 30-180 min
Method: All supplements were orally ingested with 8 fluid ounces of cold tap water. The order of administration for all interventions was randomized using a random allocation software to ensure randomization and to avoid order effects. […] All study visits took place between 0600-1000 hours. At least 72 hours of rest will take place between each condition.

[2] = Swagger visual analog scale (VAS) after oral ingestion, crossover, two participants; conditions: 200 mg Caffeine
Method: (§1) All supplements were orally ingested with 8 fluid ounces of cold tap water. The order of administration for all interventions was randomized using a random allocation software to ensure randomization and to avoid order effects. After ingestion, participants completed all assessments in an identical fashion 30, 60, 90, 120, and 180 minutes after ingestion of their assigned supplement. All study visits took place between 0600-1000 hours. At least 72 hours of rest took place between each condition.

[3] = Confidence visual analog scale (VAS) after oral ingestion, crossover, two participants; set-up: Confidence (Visual Analog Scale) / Confidence VAS MEAN: scale not given here; conditions: for Confidence (Visual Analog Scale) / Confidence VAS MEAN / Confidence VAS mean Δ vs. 100 mg PX / Confidence VAS mean Δ vs. PLA: 200 mg Caffeine
Method: as §1

For `Cn1c(=O)c2c(ncn2C)n(C)c1=O` [CA, caffeine, reference compound], the “reduction in appetite compared to placebo” value [1] was 2.4%, the “Appetite Visual Analog Scale” value ([1]; 30 min, person one) was 70 and the “Appetite Visual Analog Scale” value ([1]; 30 min, person two) was 50. For the same compound, the “Appetite Visual Analog Scale” value ([1]; 60 min, person one) was 100, the “Appetite Visual Analog Scale” value ([1]; 60 min, person two) was 60 and the “Appetite Visual Analog Scale” value ([1]; 90 min, person one) was 100. For the same compound, the “Appetite Visual Analog Scale” value ([1]; 90 min, person two) was 61, the “Appetite Visual Analog Scale” value ([1]; 120 min, person one) was 100 and the “Appetite Visual Analog Scale” value ([1]; 120 min, person two) was 65. For the same compound, the “Appetite Visual Analog Scale” value ([1]; 180 min, person one) was 100, the “Appetite Visual Analog Scale” value ([1]; 180 min, person two) was 70 and the “Appetite Visual Analog Scale MEAN” value ([1]; Average of both) was 77.6. The “Appetite Visual Analog Scale MEAN” value ([1]; person one) was 94.0, the “Appetite Visual Analog Scale MEAN” value ([1]; person two) was 61.2 and the “Appetite VAS mean Δ vs. 100 mg PX” value ([1]; person one) was “+65.0”. For the same compound, the “Appetite VAS mean Δ vs. 300 mg PX” value ([1]; person one) was “+66.8”, the “Appetite VAS mean Δ vs. PLA” value ([1]; person one) was −0.2 and the “Appetite VAS mean Δ vs. 100 mg PX” value ([1]; person two) was −12.8. For the same compound, the “Appetite VAS mean Δ vs. 300 mg PX” value ([1]; person two) was −2.8, the “Appetite VAS mean Δ vs. PLA” value ([1]; person two) was −12.0 and the “Swagger (Visual Analog Scale)” value ([2]; 30 min, person one) was 64. The “Swagger (Visual Analog Scale)” value ([2]; 30 min, person two) was 65, the “Swagger (Visual Analog Scale)” value ([2]; 60 min, person one) was 56 and the “Swagger (Visual Analog Scale)” value ([2]; 60 min, person two) was 62. For the same compound, the “Swagger (Visual Analog Scale)” value ([2]; 90 min, person one) was 51, the “Swagger (Visual Analog Scale)” value ([2]; 90 min, person two) was 62 and the “Swagger (Visual Analog Scale)” value ([2]; 120 min, person one) was 61. The “Swagger (Visual Analog Scale)” value ([2]; 120 min, person two) was 59, the “Swagger (Visual Analog Scale)” value ([2]; 180 min, person one) was 44 and the “Swagger (Visual Analog Scale)” value ([2]; 180 min, person two) was 69. The “Swagger VAS mean Δ vs. 100 mg PX” value ([2]; person one) was −31.0, the “Swagger VAS mean Δ vs. PLA” value ([2]; person one) was −23.4 and the “Swagger VAS MEAN” value ([2]; person two) was 63.4. The “Swagger VAS mean Δ vs. 100 mg PX” value ([2]; person two) was −10.0, the “Swagger VAS mean Δ vs. PLA” value ([2]; person two) was “+10.0” and the “Confidence (Visual Analog Scale)” value ([3]; 30 min, person one) was 80. The “Confidence (Visual Analog Scale)” value ([3]; 30 min, person two) was 74, the “Confidence (Visual Analog Scale)” value ([3]; 60 min, person one) was 91 and the “Confidence (Visual Analog Scale)” value ([3]; 60 min, person two) was 76. The “Confidence (Visual Analog Scale)” value ([3]; 90 min, person one) was 71, the “Confidence (Visual Analog Scale)” value ([3]; 90 min, person two) was 66 and the “Confidence (Visual Analog Scale)” value ([3]; 120 min, person one) was 80. For the same compound, the “Confidence (Visual Analog Scale)” value ([3]; 120 min, person two) was 70, the “Confidence (Visual Analog Scale)” value ([3]; 180 min, person one) was 90 and the “Confidence (Visual Analog Scale)” value ([3]; 180 min, person two) was 65. For the same compound, the “Confidence VAS MEAN” value ([3]; Average of both) was 76.3, the “Confidence VAS MEAN” value ([3]; person one) was 82.4 and the “Confidence VAS mean Δ vs. 100 mg PX” value ([3]; person one) was “+0.4”. The “Confidence VAS mean Δ vs. PLA” value ([3]; person one) was “+1”, the “Confidence VAS MEAN” value ([3]; person two) was 70.2 and the “Confidence VAS mean Δ vs. 100 mg PX” value ([3]; person two) was “+0.2”. The “Confidence VAS mean Δ vs. PLA” value ([3]; person two) was −0.8 and the effect on confidence ([3]; 200 mg of CA) was “failed to increase confidence”.
